Results: ChEMBL document CHEMBL4400521, “Plasma kallikrein cleaves and inactivates apelin-17: Palmitoyl- and PEG-extended apelin-17 analogs as metabolically stable blood pressure-lowering agents” (Eur J Med Chem, 2019)
Calls of active or inactive are those of the source. No cut-off for these calls is given here. Non-standard residues stand in square brackets, D forms with d. Residues, ends and D or L forms follow the SMILES beside them. *: point of attachment. Phe(4-Br) = N[C@@H](Cc1ccc(Br)cc1)C(=O)O; Fmoc = O=C(OCC1c2ccccc2-c2ccccc21)*; PEG6 = NCCOCCOCCOCCOCCOCCOCCC(=O)O; Palmitoyl = CCCCCCCCCCCCCCCC(=O)*; NMeL = CN[C@@H](CC(C)C)C(=O)O; Nle = CCCC[C@H](N)C(=O)O; Aib = CC(C)(N)C(=O)O

Experiments:
Mus musculus [1] = test: Blood pressure lowering activity in anesthetized mouse assessed as change in mean arterial blood pressure at 1.4 uM/kg, iv; assay type: functional; conditions: TDE = time-dependent effect
[2] = biological target: T1, Apelin receptor (Rattus norvegicus) (UniProt Q9JHG3); test: Displacement of [125I]-(Glp1,Nle11,[…])apelin-13 from recombinant rat EGFP-fused apelin receptor expressed in CHO cell membrane measured after 3 hrs; assay type: cell membranes
T1 sequence (whole entry): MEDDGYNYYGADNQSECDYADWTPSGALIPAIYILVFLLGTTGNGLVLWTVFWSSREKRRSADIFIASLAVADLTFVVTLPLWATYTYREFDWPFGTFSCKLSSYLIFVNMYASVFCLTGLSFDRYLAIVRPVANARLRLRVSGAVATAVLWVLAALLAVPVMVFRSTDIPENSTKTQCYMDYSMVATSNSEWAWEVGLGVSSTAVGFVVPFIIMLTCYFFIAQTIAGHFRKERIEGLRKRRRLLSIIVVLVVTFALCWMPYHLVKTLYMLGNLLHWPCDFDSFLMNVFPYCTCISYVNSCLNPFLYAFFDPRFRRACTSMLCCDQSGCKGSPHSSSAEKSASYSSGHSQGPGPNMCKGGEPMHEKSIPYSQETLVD

Mus musculus [3] = test: Blood pressure lowering activity in anesthetized mouse assessed as increase in heart rate at 1.4 uM/kg, iv measured up to 60 mins; assay type: functional, organism-based
[4] = test system: CCCC[C@H](NC(=O)[C@@H]1CCCN1C(=O)CNC(=O)[C@H](CCCCN)NC(=O)[C@H](Cc1c[nH]cn1)NC(=O)[C@H](CO)NC(=O)[C@H](CC(C)C)N(C)C(=O)[C@H](CCCNC(=N)N)NC(=O)[C@@H]1CCCN1C(=O)[C@H](CCCNC(=N)N)NC(=O)[C@H](CCC(N)=O)NC(=O)[C@H](CCCNC(=N)N)NC(=O)[C@H](CCCNC(=N)N)NC(=O)[C@H](Cc1ccccc1)NC(=O)[C@@H](N)CCCCN)C(=O)NC(C)(C)C(=O)N[C@@H](Cc1ccc(Br)cc1)C(=O)O; test: (§1) Substrate activity at recombinant human C-terminal His6-tagged KLKB1 (Pro19 to Ser262 residues) expressed in mammalian expression system assessed as Km measured after 30 to 60 mins by LC-MS analysis; assay type: ADME
[5] = test system: CCCC[C@H](NC(=O)[C@@H]1CCCN1C(=O)CNC(=O)[C@H](CCCCN)NC(=O)[C@H](Cc1c[nH]cn1)NC(=O)[C@H](CO)NC(=O)[C@H](CC(C)C)NC(=O)[C@H](CCCNC(=N)N)NC(=O)[C@@H]1CCCN1C(=O)[C@H](CCCNC(=N)N)NC(=O)[C@H](CCC(N)=O)NC(=O)[C@H](CCCNC(=N)N)NC(=O)[C@H](CCCNC(=N)N)NC(=O)[C@H](Cc1ccccc1)NC(=O)[C@@H](N)CCCCN)C(=O)NC(C)(C)C(=O)N[C@@H](Cc1ccc(Br)cc1)C(=O)O; test: as §1; assay type: ADME
[6] = test system: CC[C@H](C)[C@H](NC(=O)[C@H](CCCNC(=N)N)NC(=O)[C@H](CC(C)C)NC(=O)[C@H](CO)NC(=O)[C@H](CCCNC(=N)N)NC(=O)[C@H](Cc1ccccc1)NC(=O)[C@@H]1CCCN1C(=O)[C@H](CO)NC(=O)[C@H](Cc1ccccc1)NC(=O)CNC(=O)c1ccccc1N)C(=O)N[C@@H](CCC(N)=O)C(=O)NCCNc1ccc([N+](=O)[O-])cc1[N+](=O)[O-]; test: (§2) Substrate activity at human KLKB1 assessed as Km by fluorescence assay; assay type: ADME
[7] = test system: CC[C@H](C)[C@H](NC(=O)[C@H](CCCNC(=N)N)NC(=O)[C@H](CO)NC(=O)[C@H](CO)NC(=O)[C@H](CCCNC(=N)N)NC(=O)[C@H](Cc1ccccc1)NC(=O)[C@@H]1CCCN1C(=O)[C@H](CO)NC(=O)[C@H](Cc1ccccc1)NC(=O)CNC(=O)c1ccccc1N)C(=O)N[C@@H](CCC(N)=O)C(=O)NCCNc1ccc([N+](=O)[O-])cc1[N+](=O)[O-]; test: as §2; assay type: ADME
[8] = test system: CSCC[C@H](NC(=O)[C@H](CO)NC(=O)[C@H](CO)NC(=O)[C@H](CC(C)C)NC(=O)[C@@H](N)CO)C(=O)N[C@H](C(=O)N[C@@H](CCCNC(=N)N)C(=O)N[C@H](C(=O)N[C@H](C(=O)NCC(=O)NCC(=O)O)C(C)C)C(C)C)[C@@H](C)O; test: Substrate activity at human KLKB1 assessed as Km by spectrofluorimetric method; assay type: ADME

Sequence of Plasma kallikrein (Homo sapiens) (chain, as listed by the source): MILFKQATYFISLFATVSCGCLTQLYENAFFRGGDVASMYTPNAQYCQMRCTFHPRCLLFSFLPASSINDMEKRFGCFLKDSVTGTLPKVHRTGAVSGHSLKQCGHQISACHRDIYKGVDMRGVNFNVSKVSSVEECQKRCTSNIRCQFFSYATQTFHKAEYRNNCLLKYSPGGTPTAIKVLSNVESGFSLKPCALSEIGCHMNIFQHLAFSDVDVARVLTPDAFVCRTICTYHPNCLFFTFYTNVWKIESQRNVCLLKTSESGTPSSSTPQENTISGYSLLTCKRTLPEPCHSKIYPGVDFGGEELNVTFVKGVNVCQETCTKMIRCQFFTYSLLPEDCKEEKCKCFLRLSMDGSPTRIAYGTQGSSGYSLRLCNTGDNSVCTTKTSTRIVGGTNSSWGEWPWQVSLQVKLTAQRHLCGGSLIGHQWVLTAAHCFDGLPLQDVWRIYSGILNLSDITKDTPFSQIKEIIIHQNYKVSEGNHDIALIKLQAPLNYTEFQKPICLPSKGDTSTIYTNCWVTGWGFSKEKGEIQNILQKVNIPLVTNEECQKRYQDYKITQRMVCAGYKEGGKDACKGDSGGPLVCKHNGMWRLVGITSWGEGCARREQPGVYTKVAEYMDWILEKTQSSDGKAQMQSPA

Molecule	displacement activity (active/inactive) [2]	Activity (Mus musculus [1])	further results
CSCC[C@H](NC(=O)[C@@H]1CCCN1C(=O)CNC(=O)[C@H](CCCCN)NC(=O)[C@H](Cc1cnc[nH]1)NC(=O)[C@H](CO)NC(=O)[C@H](CC(C)C)NC(=O)[C@H](CCCNC(=N)N)NC(=O)[C@@H]1CCCN1C(=O)[C@H](CCCNC(=N)N)NC(=O)[C@H](CCC(N)=O)NC(=O)[C@H](CCCNC(=N)N)NC(=O)[C@H](CCCNC(=N)N)NC(=O)[C@H](Cc1ccccc1)NC(=O)[C@@H](N)CCCCN)C(=O)N1CCC[C@H]1C(=O)N[C@@H](Cc1ccccc1)C(=O)O		Tde	
CCCCCCCCCCCCCCCC(=O)N[C@@H](CCCCN)C(=O)N[C@@H](Cc1ccccc1)C(=O)N[C@@H](CCCNC(=N)N)C(=O)N[C@@H](CCCNC(=N)N)C(=O)N[C@@H](CCC(N)=O)C(=O)N[C@@H](CCCNC(=N)N)C(=O)N1CCC[C@H]1C(=O)N[C@@H](CCCNC(=N)N)C(=O)N[C@@H](CC(C)C)C(=O)N[C@@H](CO)C(=O)N[C@@H](Cc1cnc[nH]1)C(=O)N[C@@H](CCCCN)C(=O)NCC(=O)N1CCC[C@H]1C(=O)N[C@@H](CCCC)C(=O)NC(C)(C)C(=O)N[C@@H](Cc1ccc(Br)cc1)C(=O)O (Palmitoyl-KFRRQRPRLSHKGP[Nle][Aib][Phe(4-Br)]-OH)	Active	Tde	
CCCC[C@H](NC(=O)[C@@H]1CCCN1C(=O)CNC(=O)[C@H](CCCCN)NC(=O)[C@H](Cc1cnc[nH]1)NC(=O)[C@H](CO)NC(=O)[C@H](CC(C)C)NC(=O)[C@H](CCCNC(=N)N)NC(=O)[C@@H]1CCCN1C(=O)[C@H](CCCNC(=N)N)NC(=O)[C@H](CCC(N)=O)NC(=O)[C@H](CCCNC(=N)N)NC(=O)[C@H](CCCNC(=N)N)NC(=O)[C@H](Cc1ccccc1)NC(=O)[C@H](CCCCN)NC(=O)CCOCCOCCOCCOCCOCCOCCNC(=O)OCC1c2ccccc2-c2ccccc21)C(=O)NC(C)(C)C(=O)N[C@@H](Cc1ccc(Br)cc1)C(=O)O ({Fmoc-PEG6}-KFRRQRPRLSHKGP[Nle][Aib][Phe(4-Br)]-OH)	Active	Tde	
CCCC[C@H](NC(=O)[C@@H]1CCCN1C(=O)CNC(=O)[C@H](CCCCN)NC(=O)[C@H](Cc1cnc[nH]1)NC(=O)[C@H](CO)NC(=O)[C@H](CC(C)C)N(C)C(=O)[C@H](CCCNC(=N)N)NC(=O)[C@@H]1CCCN1C(=O)[C@H](CCCNC(=N)N)NC(=O)[C@H](CCC(N)=O)NC(=O)[C@H](CCCNC(=N)N)NC(=O)[C@H](CCCNC(=N)N)NC(=O)[C@H](Cc1ccccc1)NC(=O)[C@H](CCCCN)NC(=O)CCOCCOCCOCCOCCOCCOCCNC(=O)OCC1c2ccccc2-c2ccccc21)C(=O)NC(C)(C)C(=O)N[C@@H](Cc1ccc(Br)cc1)C(=O)O ({Fmoc-PEG6}-KFRRQRPR[NMeL]SHKGP[Nle][Aib][Phe(4-Br)]-OH)	Active	Tde	
Plasma kallikrein (Homo sapiens)			Km [4]: 245 µM; Vmax [4]: 3.71 µmol/min; kcat [4]: 16.5 s⁻¹; kcat/Km [4]: 67000 M⁻¹ s⁻¹; Km [5]: 30 µM; Vmax [5]: 0.316 µmol/min; kcat [5]: 1.4 s⁻¹; kcat/Km [5]: 47000 M⁻¹ s⁻¹; Km [6]: 1.8 µM; Km [7]: 2.2 µM; Km [8]: 2.4 µM; kcat [8]: 0.001 s⁻¹; kcat/Km [8]: 420 M⁻¹ s⁻¹

More lines, main results first:

displacement activity (active/inactive) [2]	Molecule	Activity (Mus musculus [1])	further results
Active	CCCC[C@H](NC(=O)[C@@H]1CCCN1C(=O)CNC(=O)[C@H](CCCCN)NC(=O)[C@H](Cc1c[nH]cn1)NC(=O)[C@H](CO)NC(=O)[C@H](CC(C)C)NC(=O)[C@H](CCCNC(=N)N)NC(=O)[C@@H]1CCCN1C(=O)[C@H](CCCNC(=N)N)NC(=O)[C@H](CCC(N)=O)NC(=O)[C@H](CCCNC(=N)N)NC(=O)[C@H](CCCNC(=N)N)NC(=O)[C@H](Cc1ccccc1)NC(=O)[C@@H](N)CCCCN)C(=O)NC(C)(C)C(=O)N[C@@H](Cc1ccc(Br)cc1)C(=O)O (H-KFRRQRPRLSHKGP[Nle][Aib][Phe(4-Br)]-OH)	Tde	
Active	CCCC[C@H](NC(=O)[C@@H]1CCCN1C(=O)CNC(=O)[C@H](CCCCN)NC(=O)[C@H](Cc1c[nH]cn1)NC(=O)[C@H](CO)NC(=O)[C@H](CC(C)C)N(C)C(=O)[C@H](CCCNC(=N)N)NC(=O)[C@@H]1CCCN1C(=O)[C@H](CCCNC(=N)N)NC(=O)[C@H](CCC(N)=O)NC(=O)[C@H](CCCNC(=N)N)NC(=O)[C@H](CCCNC(=N)N)NC(=O)[C@H](Cc1ccccc1)NC(=O)[C@@H](N)CCCCN)C(=O)NC(C)(C)C(=O)N[C@@H](Cc1ccc(Br)cc1)C(=O)O (H-KFRRQRPR[NMeL]SHKGP[Nle][Aib][Phe(4-Br)]-OH)	Tde	
Active	CCCC[C@H](NC(=O)[C@@H]1CCCN1C(=O)CNC(=O)[C@H](CCCCN)NC(=O)[C@H](Cc1cnc[nH]1)NC(=O)[C@H](CO)NC(=O)[C@H](CC(C)C)NC(=O)[C@H](CCCNC(=N)N)NC(=O)[C@@H]1CCCN1C(=O)[C@H](CCCNC(=N)N)NC(=O)[C@H](CCC(N)=O)NC(=O)[C@@H](N)CCCNC(=N)N)C(=O)NC(C)(C)C(=O)N[C@@H](Cc1ccc(Br)cc1)C(=O)O (H-RQRPRLSHKGP[Nle][Aib][Phe(4-Br)]-OH)	Tde	
Active	CCCC[C@H](NC(=O)[C@@H]1CCCN1C(=O)CNC(=O)[C@H](CCCCN)NC(=O)[C@H](Cc1cnc[nH]1)NC(=O)[C@H](CO)NC(=O)[C@H](CC(C)C)N(C)C(=O)[C@H](CCCNC(=N)N)NC(=O)[C@@H]1CCCN1C(=O)[C@H](CCCNC(=N)N)NC(=O)[C@H](CCC(N)=O)NC(=O)[C@@H](N)CCCNC(=N)N)C(=O)NC(C)(C)C(=O)N[C@@H](Cc1ccc(Br)cc1)C(=O)O (H-RQRPR[NMeL]SHKGP[Nle][Aib][Phe(4-Br)]-OH)	Tde	
Active	CCCCCCCCCCCCCCCC(=O)N[C@@H](CCCCN)C(=O)N[C@@H](Cc1ccccc1)C(=O)N[C@@H](CCCNC(=N)N)C(=O)N[C@@H](CCCNC(=N)N)C(=O)N[C@@H](CCC(N)=O)C(=O)N[C@@H](CCCNC(=N)N)C(=O)N1CCC[C@H]1C(=O)N[C@@H](CCCNC(=N)N)C(=O)N(C)[C@@H](CC(C)C)C(=O)N[C@@H](CO)C(=O)N[C@@H](Cc1cnc[nH]1)C(=O)N[C@@H](CCCCN)C(=O)NCC(=O)N1CCC[C@H]1C(=O)N[C@@H](CCCC)C(=O)NC(C)(C)C(=O)N[C@@H](Cc1ccc(Br)cc1)C(=O)O (Palmitoyl-KFRRQRPR[NMeL]SHKGP[Nle][Aib][Phe(4-Br)]-OH)		Activity (Mus musculus [3]): Active
